Assay results taken from US7161008B2, “Optically active β-aminoketones, optically active 1,3-amino alcohols and processes for preparing them” (Sanofi - Aventis Deutschland GmbH, priority 2002, dated 2007).

Test: Syn/anti-isomerization of the Mannich salt via retro-Mannich/Mannich reaction in DMSO-d6 solution at 300 K, 1H NMR monitoring
Format: physicochemical
Settings: for cis-isomer [%] / trans-isomer [%]: DMSO-d6, 300 K, 1H NMR
Description: Electron-withdrawing substituents in the aldehyde component of formula (IV) reduced the retro-Mannich tendency. The 1H NMR monitoring of the syn/anti-isomerization of a syn-Mannich salt of formula (III) via retro-Mannich reaction at 300 K in DMSO-d6 solution can be seen in Example 28.
Syn/anti-isomerization of the Mannich base mandelate from […] in DMSO-d^6 solution at 300K. Kinetics and equilibrium location of the retro-Mannich/Mannich reactions:
8 mg of the product from Example 27 were dissolved in DMSO-d^6 as rapidly as possible in a ^1H NMR tube at room temperature. The sample was immediately introduced into the NMR instrument (400 MHz, 300.0 K), shimmed rapidly and analyzed. The first spectrum was obtained 3.5 min after the sample dissolution. […] Further spectra of the solution were each obtained at an interval of 3–4 min. […] The variation can be seen from the graphics and the table of the appendix. 69 min after dissolution of the Mannich salt, the NMR monitoring was aborted at a syn/anti ratio of 50:50. A repeat measurement 20.5 hours after dissolution of the Mannich salt indicated a syn/anti ratio of 41.5:58.5. After a total of 44.5 hours, this ratio was unchanged. The thermodynamic equilibrium of the two isomers is thus achieved in less than 20 h and the anti-isomer is preferred in solution. In contrast, the four-component coupling (Example 27) results in the crystallization of virtually pure syn-isomer, apparently owing to lower solubility. Even the spectrum obtained 3.5 min after sample dissolution indicates (in addition to the syn- and anti-isomers of the Mannich salt) the presence of the retro-Mannich products 2-pyridylmethyl phenyl ketone (formula VI; singlet at δ is 4.53 ppm) and tolylaldehyde (or corresponding imine) (formula IV or X, singlets at δ is 2.40 and 9.12 ppm) in small but significant amounts. The best fitting curve between the measurement points of the graph was obtained by 3rd order polynomial formation.

[1] = 3.5 min after sample dissolution
[2] = 6.5 min after sample dissolution
[3] = 10.5 min after sample dissolution
[4] = 13.5 min after sample dissolution
[5] = 17.5 min after sample dissolution
[6] = 20.5 min after sample dissolution
[7] = 24.5 min after sample dissolution
[8] = 27.5 min after sample dissolution
[9] = 31.5 min after sample dissolution
[10] = 34.5 min after sample dissolution
[11] = 37.5 min after sample dissolution
[12] = 41.5 min after sample dissolution
[13] = 44.5 min after sample dissolution
[14] = 48.5 min after sample dissolution
[15] = 51.5 min after sample dissolution
[16] = 55.5 min after sample dissolution
[17] = 58.5 min after sample dissolution
[18] = 61.5 min after sample dissolution
[19] = 65.5 min after sample dissolution
[20] = 68.5 min after sample dissolution
[21] = 1230 min after sample dissolution
[22] = 2670 min after sample dissolution

Cc1ccc(C(Nc2ccccn2)C(C(=O)c2ccccc2)c2ccccn2)cc1.O=C(O)C(O)c1ccccc1 (stereo not shown) [Example 27]
cis-isomer [%] [1]: 95.1%
trans-isomer [%] [1]: 4.9%
cis-isomer [%] [2]: 92.5%
trans-isomer [%] [2]: 7.5%
cis-isomer [%] [3]: 89.0%
trans-isomer [%] [3]: 11.0%
cis-isomer [%] [4]: 85.0%
trans-isomer [%] [4]: 15.0%
cis-isomer [%] [5]: 81.7%
trans-isomer [%] [5]: 18.3%
cis-isomer [%] [6]: 77.3%
trans-isomer [%] [6]: 22.7%
cis-isomer [%] [7]: 76.8%
trans-isomer [%] [7]: 23.2%
cis-isomer [%] [8]: 71.8%
trans-isomer [%] [8]: 28.2%
cis-isomer [%] [9]: 68.0%
trans-isomer [%] [9]: 32.0%
cis-isomer [%] [10]: 66.2%
trans-isomer [%] [10]: 33.8%
cis-isomer [%] [11]: 63.8%
trans-isomer [%] [11]: 36.2%
cis-isomer [%] [12]: 61.7%
trans-isomer [%] [12]: 38.3%
cis-isomer [%] [13]: 60.1%
trans-isomer [%] [13]: 39.9%
cis-isomer [%] [14]: 58.7%
trans-isomer [%] [14]: 41.3%
cis-isomer [%] [15]: 56.8%
trans-isomer [%] [15]: 43.2%
cis-isomer [%] [16]: 54.5%
trans-isomer [%] [16]: 45.5%
cis-isomer [%] [17]: 53.6%
trans-isomer [%] [17]: 46.4%
cis-isomer [%] [18]: 52.9%
trans-isomer [%] [18]: 47.1%
cis-isomer [%] [19]: 52.0%
trans-isomer [%] [19]: 48.0%
cis-isomer [%] [20]: 50.5%
trans-isomer [%] [20]: 49.5%
cis-isomer [%] [21]: 41.5%
trans-isomer [%] [21]: 58.5%
cis-isomer [%] [22]: 41.6%
trans-isomer [%] [22]: 58.4%
syn/anti ratio of the Mannich salt in solution, compared with 20.5 hours (DMSO-d6, 300.0 K, after a total of 44.5 hours): unchanged
time to thermodynamic equilibrium of syn- and anti-isomers (DMSO-d6 solution, 300 K): less than 20 h
